# From PMC3003779 (Chemistry & biology, 2010)
# Like-named read-outs stand apart in the source and are kept apart here.
# Experiments:
# SHR and WKY rats [1] = assay: mean arterial pressure and heart rate in anesthetized rats; assay type: in vivo, rat; conditions: for hypotensive effect: 0.3 mg/kg
# CB1 receptor = CB1 receptor (Rattus norvegicus, UniProt P20272); assay: HU210-stimulated [35S]GTPγS binding in brain membranes; assay type: biochemical; conditions: brain membrane preparations, SHR vs WKY
# human recombinant FAAH = molecular target: T1, human recombinant FAAH (Homo sapiens, UniProt O00519); assay: biochemical; conditions: in vitro
# T1 sequence (O00519 1-579): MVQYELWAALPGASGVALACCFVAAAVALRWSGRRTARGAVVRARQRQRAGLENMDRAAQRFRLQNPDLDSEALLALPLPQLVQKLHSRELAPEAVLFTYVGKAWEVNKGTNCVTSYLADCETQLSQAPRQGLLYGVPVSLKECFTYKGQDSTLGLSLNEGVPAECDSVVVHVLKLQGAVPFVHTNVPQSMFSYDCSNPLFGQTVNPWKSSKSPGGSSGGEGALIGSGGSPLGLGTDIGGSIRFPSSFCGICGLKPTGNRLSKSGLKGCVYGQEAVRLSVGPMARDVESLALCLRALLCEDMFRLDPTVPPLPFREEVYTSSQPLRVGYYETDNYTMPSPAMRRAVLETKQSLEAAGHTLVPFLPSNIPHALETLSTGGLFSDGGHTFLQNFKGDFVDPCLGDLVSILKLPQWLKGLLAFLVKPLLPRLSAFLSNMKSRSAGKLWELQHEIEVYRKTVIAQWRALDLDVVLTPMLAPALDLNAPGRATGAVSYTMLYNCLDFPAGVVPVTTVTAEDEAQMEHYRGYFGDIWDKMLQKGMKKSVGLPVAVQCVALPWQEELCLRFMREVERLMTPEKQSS
# FAAH [2] = molecular target: T2, FAAH (Mus musculus, UniProt O08914); assay type: cell-based
# T2 sequence (O08914 1-579): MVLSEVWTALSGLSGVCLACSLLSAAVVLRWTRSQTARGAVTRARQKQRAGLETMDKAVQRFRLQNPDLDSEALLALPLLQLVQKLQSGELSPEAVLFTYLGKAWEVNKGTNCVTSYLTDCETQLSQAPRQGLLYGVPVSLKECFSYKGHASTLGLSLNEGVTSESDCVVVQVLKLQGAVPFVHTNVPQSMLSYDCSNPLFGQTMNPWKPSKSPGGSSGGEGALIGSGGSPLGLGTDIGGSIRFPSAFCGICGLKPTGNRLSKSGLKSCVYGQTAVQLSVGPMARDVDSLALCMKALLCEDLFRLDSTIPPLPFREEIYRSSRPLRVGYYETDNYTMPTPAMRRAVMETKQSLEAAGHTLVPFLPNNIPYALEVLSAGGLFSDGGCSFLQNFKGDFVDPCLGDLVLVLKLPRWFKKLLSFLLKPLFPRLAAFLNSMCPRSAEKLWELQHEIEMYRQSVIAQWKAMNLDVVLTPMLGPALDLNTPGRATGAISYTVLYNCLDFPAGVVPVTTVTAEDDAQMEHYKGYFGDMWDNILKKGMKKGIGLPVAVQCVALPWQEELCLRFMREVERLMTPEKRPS
# [3] = system: mice with diet-induced obesity; assay: intraperitoneal glucose tolerance test in mice on high-fat diet; assay type: in vivo, mouse
# SHR and WKY rats [4] = assay: non-fasting blood glucose in rats; conditions: 10 mg/kg i.p.
# FAAH [5] = molecular target: T2, FAAH; assay: FAAH activity in brain and liver homogenates, drug added in vitro; assay type: biochemical
# FAAH [6] = molecular target: T2, FAAH; assay: in vivo; assay type: in vivo; conditions: mouse
# [7] = system: anandamide levels in hepatocytes; assay: anandamide levels in hepatocytes; assay type: cell-based, mouse; conditions: 100 nM, dense suspension 40 mg/mL
# Mouse hepatocytes = assay: drug levels in hepatocyte suspensions by LC/MS/MS
# Sequence of CB1 receptor (P20272 whole entry): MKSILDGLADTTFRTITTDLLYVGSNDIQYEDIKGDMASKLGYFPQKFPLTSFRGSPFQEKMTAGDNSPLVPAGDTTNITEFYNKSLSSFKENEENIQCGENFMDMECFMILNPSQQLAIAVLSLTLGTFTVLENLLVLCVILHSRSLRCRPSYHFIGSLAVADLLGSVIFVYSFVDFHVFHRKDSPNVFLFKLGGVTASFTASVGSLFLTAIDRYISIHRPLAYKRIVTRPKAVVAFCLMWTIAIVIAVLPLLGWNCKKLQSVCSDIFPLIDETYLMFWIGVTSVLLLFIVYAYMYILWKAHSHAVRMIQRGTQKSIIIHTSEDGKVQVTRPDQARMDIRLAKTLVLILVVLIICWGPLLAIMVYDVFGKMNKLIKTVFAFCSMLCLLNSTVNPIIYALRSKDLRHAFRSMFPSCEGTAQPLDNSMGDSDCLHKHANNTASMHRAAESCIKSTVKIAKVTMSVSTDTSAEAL
smiles,measurement,setting,value
Cc1c(C(=O)NN2CCCCC2)nn(-c2ccc(Cl)cc2Cl)c1-c1ccc(I)cc1 [AM251],effect on the effects of HU210,SHR and WKY rats [1]; SHR and WKY,abolished
same,effect of pretreatment on the MAP and HR effects of AM3506,"SHR and WKY rats [1]; SHR, 3 mg/kg i.p. 60 min before 1 mg/kg AM3506 i.v.",prevented
same,acute reversal of the fully developed effects of AM3506,"SHR and WKY rats [1]; SHR, 3 mg/kg i.v. at the peak hypotensive response to 1 mg/kg AM3506",acutely reversed
CCCCCOc1ccc(C(=O)c2cccc3ccccc23)c2ccccc12 [CB13],hypotensive effect,SHR and WKY rats [1]; SHR,−40±6 mmHg
same,hypotensive effect,SHR and WKY rats [1]; WKY,−36±10 mmHg
CCCCCCC(C)(C)c1cc(O)c2c(c1)OC(C)(C)[C@@H]1CC=C(CO)C[C@@H]21 [HU210],"hypotension, SHR compared with WKY","SHR and WKY rats [1]; 1 μg/kg i.v., anaesthetized rats",much greater hypotension in SHR than in WKY
same,"CB1 receptor coupling efficiency, HU210-stimulated GTPγS labeling",CB1 receptor,dramatically increased
"O=S(=O)(F)Cc1ccccc1 [PMSF, phenyl methyl sulfonyl fluoride, reference compound]",potency against human recombinant FAAH relative to AM3506 and URB597,human recombinant FAAH,3 orders of magnitude less potent
"NC(=O)c1cccc(-c2cccc(OC(=O)NC3CCCCC3)c2)c1 [URB597, reference compound]","FAAH activity in cell pellet, dilute hepatocyte suspension",FAAH [2],nearly completely blocked
same,"FAAH activity in cells, dense hepatocyte suspension",FAAH [2],rapidly and nearly completely blocked
same,"hypotensive/bradycardic potency, times less potent than AM3506",SHR and WKY rats [1]; anesthetized SHR,~ 40 times
same,ipGTT area under the curve (AUC),"[3]; liver-specific CB1 knockout (LCB1−/−) mice on HFD, vehicle 322±37",337 ± 14 mg·h/dL
same,effect on glucose tolerance,"[3]; liver-specific CB1−/− mice on HFD, 1.38 mg/kg",failed to affect glucose tolerance
same,effect on glucose tolerance,"[3]; liver-specific CB1−/− mice on HFD, 10 mg/kg",remained ineffective
same,effect on glucose tolerance,"[3]; male DIO mice, 1.38 mg/kg",marked increase in glucose intolerance
same,ipGTT area under the curve (AUC),"[3]; male DIO mice, 1.38 mg/kg i.p. 60 min before glucose, vehicle 352±28",570 ± 45 mg·h/dL
same,effect on glucose tolerance,"[3]; wild-type mice on HFD, 10 mg/kg, compared with the lower dose",same degree of glucose intolerance
same,non-fasting blood glucose after treatment,"SHR and WKY rats [4]; SHR, from 104.0±7.4",144.0 ± 9.6 mg/dL
same,non-fasting blood glucose after treatment,"SHR and WKY rats [4]; WKY, from 90.0±7.2",135.3 ± 12.9 mg/dL
same,FAAH activity in tissue homogenates,FAAH [5],equally effective in blocking FAAH activity in brain and liver
same,suppression of FAAH activity in brain,"FAAH [6]; in vivo, po, 10 mg/kg",86±2%
same,suppression of FAAH activity in liver,"FAAH [6]; in vivo, po, 10 mg/kg",83±0.5%
same,ED50,"FAAH [6]; read-out: ID50, inhibition of brain FAAH activity",0.22 mg/kg
same,ED50,"FAAH [6]; read-out: ID50, inhibition of liver FAAH activity",0.45 mg/kg
same,anandamide levels in hepatocytes,[7],markedly increased
same,recovery of drug from cell-free medium,"Mouse hepatocytes; 0 to 30 min, no hepatocytes",remained constant
same,"drug level in cell pellets, dense hepatocyte suspension","Mouse hepatocytes; 100 nM, 40 mg/mL",gradually declined over 10 min
same,"drug level in medium, dense hepatocyte suspension","Mouse hepatocytes; 100 nM, 40 mg/mL",rapidly depleted from the medium
same,free drug (parent ion) still present in cell-free supernatant,"Mouse hepatocytes; dilute hepatocyte suspension 1 mg/mL, 100 nM, 10 min, % of drug added at 0 min",50–55%
Cc1c(C(=O)NN2CCCCC2)nn(-c2ccc(Cl)cc2Cl)c1-c1ccc(Cl)cc1 [rimonabant],"ΔHR, acute reversal of AM3506 effect","SHR and WKY rats [1]; SHR, 3 mg/kg, after AM3506",+129±14 bpm
same,"ΔMBP, acute reversal of AM3506 effect","SHR and WKY rats [1]; SHR, 3 mg/kg, after AM3506",+101±9 mmHg
